The values below come from ChEMBL document CHEMBL1155693, “Structures of five components of the actinomycin Z complex from Streptomyces fradiae, two of which contain 4-chlorothreonine” (2000).

Holding throughout (format): functional
The subject of one assay is Bacillus subtilis. The assay can be described thus: Antibacterial activity against Bacillus subtilis ATCC 6051 after 18 hrs. The note with it: ATCC 6051, 18 h.
A further assay concerns HepG2. Kind of assay: Cytotoxicity against human HepG2 cells after 48 hrs by sulforhodamine assay. Particulars: HepG2, 48 h.
Assay [1] can be described thus: Cytotoxicity against human HMO2 cells after 48 hrs by sulforhodamine assay. Particulars: HMO2, 48 h; for CC50: read-out: LC50 (the source's name).
Another assay relates to MCF7. Kind of assay: Cytotoxicity against human MCF7 cells after 48 hrs by sulforhodamine assay. Particulars: MCF7, 48 h; for CC50: read-out: LC50 (the source's name).

In general, MIC refers to the least concentration at which growth counts as inhibited. Higher therefore signals weaker potency. By GI50 is commonly meant the concentration giving 50% growth inhibition. The LC50 is the concentration that kills 50% of the test population. Low readings indicate a more lethal substance, high ones a less lethal substance. A word on the TGI: it is the concentration at which net growth stops. Higher therefore signals less potent growth arrest.

Molecules are shown by their SMILES. ≈ marks a conversion by molar mass, not a printed value. *1 amine or outer side, *2 acyl side, *3 side chain or, on linkers, in order; H or OH if unused. Where a SMILES comes first, the peptide text is derived from it. Bridges are numbered along the chain shown (N, C = ends). Roman numbers before positions name the chains, in order. [ ]: non-standard residue; d: D form. Actinocin(1to9) = Cc1c2oc3c(C)ccc(C(=O)[*:2])c3nc-2c(C(=O)[*:1])c(N)c1=O; NMeV = CN[C@H](C(=O)O)C(C)C; Sar = CNCC(=O)O Where only a bound is given, the exact number is not on record here.

For the compound `Cc1c2oc3c(C)ccc(C(=O)N[C@@H]4C(=O)N[C@H](C(C)C)C(=O)N5[C@H](C(=O)N(C)CC(=O)N(C)[C@@H](C(C)C)C(=O)O[C@@H]4C)[C@@H](O)C[C@@H]5C)c3nc-2c(C(=O)N[C@@H]2C(=O)N[C@H](C(C)C)C(=O)N3[C@@H](C)C(=O)C[C@H]3C(=O)N(C)CC(=O)N(C)[C@@H](C)C(=O)O[C@H]2CO)c(N)c1=O` [ACTINOMYCIN Z1], in the assay on Bacillus subtilis, it took 12.5 µg/mL (≈ 9.6 µM) to inhibit growth (MIC). In the assay on HepG2, this compound displayed a GI50 of 950 nM, an LC50 above 50000 nM and a TGI of 5500 nM. Also, in assay [1], the GI50 is 750 nM, net growth stopped (TGI) at 5800 nM and the CC50 is above 50000 nM. In the assay with MCF7, the GI50 was below 500 nM, the TGI was above 50000 nM and the CC50 is above 50000 nM.

`Cc1c2oc3c(C)ccc(C(=O)N[C@@H]4C(=O)N[C@H](C(C)C)C(=O)N5[C@H](C(=O)N(C)CC(=O)N(C)[C@@H](C(C)C)C(=O)O[C@@H]4C)[C@@H](O)C[C@@H]5C)c3nc-2c(C(=O)N[C@@H]2C(=O)N[C@H](C(C)C)C(=O)N3[C@@H](C)C(=O)C[C@H]3C(=O)N(C)CC(=O)N(C)[C@@H](C)C(=O)O[C@H]2CCl)c(N)c1=O` [ACTINOMYCIN Z3] registered an MIC against Bacillus subtilis of 0.2 µg/mL (≈ 0.152 µM). In addition, in the assay with HepG2, the GI50 is below 100 nM, the LC50 is above 50000 nM and the TGI was found to be 1400 nM. Moreover, in assay [1], the GI50 was below 100 nM, the TGI was below 100 nM and the CC50 was 280 nM. Also, in the assay on MCF7, the GI50 is below 100 nM, the TGI was below 100 nM and the CC50 amounted to 500 nM.

For the compound `Cc1c2oc3c(C)ccc(C(=O)N[C@@H]4C(=O)N[C@H](C(C)C)C(=O)N5[C@@H](C)CC[C@H]5C(=O)N(C)CC(=O)N(C)[C@@H](C(C)C)C(=O)O[C@@H]4C)c3nc-2c(C(=O)N[C@@H]2C(=O)N[C@H](C(C)C)C(=O)N3[C@@H](C)C(=O)C[C@H]3C(=O)N(C)CC(=O)N(C)[C@@H](C)C(=O)O[C@H]2CCl)c(N)c1=O` [ACTINOMYCIN Z5], it took 0.78 µg/mL (≈ 0.598 µM) to inhibit growth with Bacillus subtilis (MIC). In the assay on HepG2, this compound gave a GI50 of 1500 nM, an LC50 above 50000 nM and a TGI of 10000 nM. In addition, in assay [1], the GI50 was below 100 nM, the TGI was below 100 nM and the CC50 came to 500 nM. Besides, in the assay with MCF7, the GI50 was below 100 nM, the TGI is 120 nM and the CC50 is 500 nM.

Compound `Cc1c2oc3c(C)ccc(C(=O)N[C@@H]4C(=O)N[C@H](C(C)C)C(=O)N5CCC[C@H]5C(=O)N(C)CC(=O)N(C)[C@@H](C(C)C)C(=O)O[C@@H]4C)c3nc-2c(C(=O)N[C@@H]2C(=O)N[C@H](C(C)C)C(=O)N3CCC[C@H]3C(=O)N(C)CC(=O)N(C)[C@@H](C(C)C)C(=O)O[C@@H]2C)c(N)c1=O` [DACTINOMYCIN] (I: T[dV]P[Sar][NMeV] / II: T[dV]P[Sar][NMeV]; ester I:1-I:C, II:1-II:C; linker I:N-II:N via Actinocin(1to9)) registered an MIC in the assay with Bacillus subtilis of 0.78 µg/mL (≈ 0.621 µM). In the assay on HepG2, this compound showed a GI50 of 1000 nM and a TGI of 4000 nM. In assay [1], growth was halved (GI50) at 300 nM, the TGI came out at 800 nM and the CC50 was above 50000 nM. In the assay with MCF7, the GI50 was 500 nM, total growth inhibition (TGI) required 2200 nM and the CC50 is above 50000 nM.
